Assay results reported in US8367004B2, “Apparatus and methods for nanoparticle generation and process intensification of transport and reaction systems” (Microfluidics International Corporation, priority 2008, dated 2013).
Several values for one entry are separate records, joined by “and”; a condition that tells them apart may be missing. Equal entries are not always repeated.

Experiments:
Assay type in all cases: physicochemical
[1] = Particle size analysis of drug nanosuspensions by light scattering
Experimental: Crystallization experiments were performed using an exemplary reaction processor of the type depicted in FIG. 3. The solvent phase was fed into an intensifier pump using a peristaltic pump. The water phase was placed in the inlet reservoir and gravity fed. The two streams were blended at the inlet to the intensifier pump, noting that a low level of macro-mixing will occur at this process stage.
The total flow rate through the system was controlled by the microreactor design and process pressure. By varying the flow rate through the peristaltic pump at each processing pressure, various mixing ratios of the two streams were achieved. The following solvent-to-water volume ratios were examined: 1:3, 1:4, and 1:10. Equivalently, the water concentrations in the final mixture by weight were […], respectively. A total of 250 ml were processed in each experiment.
In addition to super-saturation, the effect of process pressure, NFN concentration in the solvent stream, and the presence of a surfactant were investigated. […] The concentration of NFN in DMSO varied from 5 to 20 mg NFN/ml DMSO. To determine if a surface active agent could help control particle size, a 1% aqueous solution of Suluton (BASF) was used to replace water as the anti-solvent, the concept being that the hydrophobic group of this amphoteric molecule would interact with the crystal surface at some threshold size, forming a barrier to further transport to and/or along the surface.
To provide appropriate controls for comparison, additional crystal production experiments were conducted by mixing the NFN/DMSO solution with water in a beaker at very low shear conditions. After mixing to obtain uniformity, NFN was allowed to form crystals under quiescent conditions. Size and shape characterization studies were performed. The crystals were then suspended in a saturated solution to conduct particle size reduction experiments under high shear rates using standard Microfluidizer® technology. The purpose was to compare this size reduction process on already grown crystals (“top-down” process) with the in situ process of growing crystal to the desired size with the apparatus/system of the present disclosure (“bottom-up” process).
The particle size distribution of the nano-suspensions was measured by two different methods: • (a) Light scattering using a Horiba 910 particle size analyzer: This instrument has a wide dynamic range of between 20 nm-1000 microns. • (b) Dynamic light scattering using a Malvern NanoS particle size analyzer: This instrument has a dynamic range of 0.5 nm-6 microns
(§1) Crystallization experiments using the disclosed apparatus/system were conducted at 138 and 83 MPa (20,000 and 12,000 psi) process pressures. […] The solvents were either dimethyl sulfoxide (DMSO) or N-Methyl-2-Pyrrolidone (NMP), and the antisolvent was water (see TABLE 3). Of note, alternative solvents include methanol, ethanol, acetone, dichloromethane, octanol and isopropyl alcohol, and alternative antisolvents include hexane and heptane. The water volume flow rate was typically 3-10 times the solvent volume flow rate, resulting in supersaturation between 1.4 and 9.
For the “top down” control experiments, suspensions of micron size crystals were processed with a conventional Microfluidizer® high shear processor. These crystals had been grown under no shear conditions by pouring the solvent and antisolvent streams into a beaker and then allowing the crystals to grow without stirring the fluids.
(§2) Material characterization was performed in the same manner as described above with reference to Example 1.

[2] = Electron microscopy of particle dimensions and shape
Experimental: A Hitachi S-4800 field-emission SEM was used to examine the surface structure and shape of the drug particles and also to verify qualitatively the particle size obtained from the particle size analyzers.
as §2

[3] = Stability of nanosuspensions
Experimental: as §1
A surfactant was added to the antisolvent (water) in order to: (a) stabilize the nanoparticles and limit their growth, and (b) minimize agglomeration of the particles and to thereby create a stable suspension. Two non-ionic surfactants were used, Solutol® HS 15 (polyoxyethylene esters of 12-hydroxystearic acid; […]) and a hydrophobically modified inulin polymeric surfactant, INUTEK SP1 (Orafti).

[4] = Solubility of NFN in water/DMSO mixtures (batch, gravimetric); settings: for NFN solubility / % NFN precipitation from saturated DMSO solution: 20° C.
Experimental: Water was mixed with a DMSO-NFN solution of known concentration, while maintaining miscible conditions, to obtain a super-saturation state. […] The crystals were filtered from the liquid, then dried in a vacuum oven for about 10 hours at 90° C., and weighed. The filtered liquid phase was evaporated to dryness and the mass of the solid residue determined gravimetrically. The mass balance of the NFN (total amount recovered/amount dissolved) was also determined to establish precision of the solubility limit estimate. The closure was always greater than 90 percent.
(§3) The solubility data were used to estimate super-saturation ratios and the theoretical efficiency of the process, which is defined as the percentage of the drug present in the solvent that precipitates as the solvent and antisolvent streams mix.

[5] = XRD percent crystallinity and crystallite size
Experimental: The samples were analyzed using a Rigaku Ultima III diffractometer. XRD analysis was used to investigate the effect of the processing conditions on the crystalline characteristics, i.e., structure, percent of crystallinity and crystallite size of NFN.

[6] = Theoretical efficiency of solvent/antisolvent crystallization; settings: 138 MPa
Excerpt: as §3

[7] = Mass transfer study, octanol phase to water phase; settings: transfer from an octanol phase to a water phase
Experimental: The interfacial area in process intensification equipment can be quantified by performing mass transfer studies. In particular, a solute is introduced into the system of interest (e.g. methanol and soybean oil) and the mass transfer rate of this solute from one phase to the other is measured. The interfacial area can then be calculated. In order to accomplish this determination, it is necessary to have an estimate of the mass transfer coefficients in the individual phases—which can be determined through bench-top experiments. Reactant systems may be processed in the disclosed apparatus/system and a measurement of inlet concentration of the solute is made. The system is run at different flow rates until the concentration at the outlet is equal to the equilibrium concentration. […] The interfacial area can then be obtained.

[8] = Disclosed System, solvent, surfactant, pressure per Table 3
[9] = suspension from Disclosed System
[10] = overnight, particles produced with disclosed system
[11] = particles produced with control method
[12] = 138 MPa, 5 mg NFN/ml DMSO, DMSO:water 1:4, passed twice, Horiba
[13] = NFN nanosuspension from disclosed system, SEM
[14] = Control (beaker, no shear), Solutol, SLS

With `CC[C@H]1OC(=O)[C@H](C)[C@@H](O[C@H]2C[C@@](C)(OC)[C@@H](O)[C@H](C)O2)[C@H](C)[C@@H](O[C@@H]2O[C@H](C)C[C@H](N(C)C)[C@H]2O)[C@](C)(O)C[C@@H](C)CN(C)[C@H](C)[C@@H](O)[C@]1(C)O` [Azithromycin] the “median particle size” value [1, 8] was 50-100 nm, the Shape ([2]; Disclosed System) was “Spheroidal” and the stability of nanosuspension ([3]; in solvent and antisolvent mixture, and in water after solvent removed) was “stable”. For the same molecule, the Stability [3, 9] was “Stable”.

With `CCOC(=O)N1CCC(=C2c3ccc(Cl)cc3CCc3cccnc32)CC1` [Loratadine] the “median particle size” value ([1]; Disclosed System, INUTEK (DMSO), DLS) was 332 nm, the “median particle size” value ([1]; Disclosed System, INUTEK (NMP), DLS) was 379 nm and the “median particle size” value ([1]; Disclosed System, Solutol (DMSO), DLS) was 90 nm. The “median particle size” value ([1]; Disclosed System, Solutol (NMP), DLS) was 183 nm, the particle size ([1]; INUTEK as surfactant) was 332-379 nm and the initial particle size ([1]; Solutol as surfactant, DMSO and NMP) was “about 90 nm”. For the same molecule, the Shape ([2]; Disclosed System, INUTEK (DMSO)) was “Needle”, the Shape ([2]; Disclosed System, INUTEK (NMP)) was “Needle” and the needle length [2, 10] was 10-20 microns. The needle width [2, 10] was 0.5-2 microns, the needle length [2, 11] was “hundreds of microns” and the needle width [2, 11] was “tens of microns”.

For `CCn1cc(C(=O)O)c(=O)c2cc(F)c(N3CCNCC3)cc21` [NFN, Norfloxacin], the NFN solubility ([4]; 0.00 wt % water in water/DMSO solution) was 21.00 mg drug/g solution, the “% NFN precipitation from saturated DMSO solution” value (shortened to “% NFN precipitation”) ([4]; 0.00 wt % water) was 0.00% and the NFN solubility ([4]; 9.17 wt % water in water/DMSO solution) was 7.18 mg drug/g solution. For the same molecule, the “% NFN precipitation” value ([4]; 9.17 wt % water) was 43.39%, the NFN solubility ([4]; 28.04 wt % water in water/DMSO solution) was 1.57 mg drug/g solution and the NFN solubility ([4]; 47.62 wt % water in water/DMSO solution) was 0.86 mg drug/g solution. The “% NFN precipitation” value ([4]; 47.62 wt % water) was 91.43%, the “% of NFN that precipitates” value ([4]; 50 wt % water) was “about 92%” and the NFN solubility ([4]; 57.69 wt % water in water/DMSO solution) was 0.64 mg drug/g solution. The “% NFN precipitation” value ([4]; 57.69 wt % water) was 92.86%, the NFN solubility ([4]; 73.17 wt % water in water/DMSO solution) was 0.71 mg drug/g solution and the “% NFN precipitation” value ([4]; 73.17 wt % water) was 89.52%. For the same molecule, the NFN solubility ([4]; 90.19 wt % water in water/DMSO solution) was 0.00 mg drug/g solution, the “% NFN precipitation” value ([4]; 90.19 wt % water) was 100.00% and the “solubility limit of NFN in DMSO” value ([4]; ambient temperature) was “about 21 mg NFN/g DMSO”. The “reduction of NFN solubility” value ([4]; dilution of DMSO solution to 28 wt % water) was “over 13 times”, the median particle size ([1]; 60 MPa, 10 mg/ml DMSO, DMSO:water 1:4, passed twice) was “approximately 320 nm” and the median particle size [1, 12] was 186 nm. The “peak of particle size distribution” value [1, 12] was 166 nm, the median particle size ([1]; 138 MPa, DMSO:water 1:4, passed twice, 5 mg NFN/g DMSO) was “approximately 190 nm” and the median particle size ([1]; 138 MPa, DMSO:water 1:4, passed twice, 20 mg NFN/g DMSO) was roughly 340 nm. The median particle size ([1]; 140 MPa, 10 mg/ml DMSO, DMSO:water 1:4, passed twice) was “about 200 nm”, the median particle size ([1]; NFN nanosuspensions, range over all Example 1 experiments) was 170-350 nm and the median particle size ([1]; control crystals after 30 passes at 207 MPa in standard Microfluidizer (top-down)) was 428 nm. For the same molecule, the median particle size ([1]; with Suluton surfactant) was 204 nm, the median particle size ([1]; without surfactant) was 209 nm and the needle length [2, 13] was 200-300 nm. For the same molecule, the needle width [2, 13] was 70-100 nm, the particle length ([2]; crystallized in low shear environment (control)) was “up to 1 mm” and the “Average Crystallite Size” value ([5]; As purchased) was 441 Å. The “Percent Crystallinity (±4%)” value ([5]; As purchased) was 84.1%, the “Average Crystallite Size” value ([5]; Re-crystallized (high shear)) was 239 Å and the “Percent Crystallinity (±4%)” value ([5]; Re-crystallized (high shear)) was 79.7%. The “Average Crystallite Size” value ([5]; Re-crystallized (low shear)) was 275 Å, the “Percent Crystallinity (±4%)” value ([5]; Re-crystallized (low shear)) was 78% and 77.8% and the “Average Crystallite Size” value ([5]; Re-crystallized (no shear)) was 727 Å. The “Percent Crystallinity (±4%)” value ([5]; Re-crystallized (no shear)) was 85% and 85.1%, the “theoretical efficiency (percentage of NFN that precipitates)” value ([6]; supersaturation ratio about 1.5) was 32% and the “theoretical efficiency (percentage of NFN that precipitates)” value ([6]; supersaturation ratio about 7) was 85%.

For `NC(=O)N1c2ccccc2CC(=O)c2ccccc21` [Oxycarbazepine], the “Median Particle Size (needle length)” value [1, 14] was 20,000 nm, the “Median Particle Size (needle width)” value [1, 14] was 5000 nm and the “median particle size” value ([1]; Control with site reduction after 25 passes, SLS) was 1200 nm. For the same molecule, the “particles by volume in the range of 2.5-6 microns” value ([1]; Disclosed System) was “about 5%”, the “larger peak of bimodal particle size distribution” value ([1]; Disclosed System, SLS) was “about 1 micron” and the “smaller peak of bimodal particle size distribution” value ([1]; Disclosed System, SLS) was “about 340 nm”. The “median particle size” value [1, 8] was 767 nm, the needle length ([1]; control conditions (beaker)) was “about 20 microns” and the needle width ([1]; control conditions (beaker)) was “about 5 microns”. The “population of particles with sizes in the range of 4-6 microns” value ([1]; control sample after 25 passes) was “about 5%”, the median particle size ([1]; control sample after 25 passes through standard Microfluidizer processor) was 1.2 microns and the Shape ([2]; Control) was “Needle”. For the same molecule, the Stability ([3]; Control) was “Stable”, the Stability ([3]; Control with site reduction after 25 passes) was “Stable” and the Stability [3, 9] was “Stable”. For the same molecule, the Stability ([3]; suspension from Disclosed System, listed as oxycarbazepine) was “stable”.

For `CC(=O)Oc1ccccc1C(=O)O` [aspirin], the interfacial transfer coefficients [7] was no more than 0.5 m/s.
